The values below come from article PMC3726336, “Product inhibition of cellulases studied with ^14C-labeled cellulose substrates” (Biotechnology for Biofuels, 2013).

One assay concerns the target CtCel7A (Chaetomium thermophilum, UniProt A7WNU1). The assay can be described thus: Cellobiose inhibition of MUL hydrolysis by CtCel7A. Conditions: MUL substrate (5 μM). The assay is classed as biochemical. An excerpt:
The cellobiose inhibition of GH7 CBHs is most often studied on low-Mw model substrates. However, it has been shown that the inhibition of CBHs acting on low-Mw substrates appears to be much stronger than that on cellulose substrates. The Ki values for cellobiose inhibition of GH7 CBHs measured on low-Mw substrates are in the micromolar range [44, 51, 52], whereas those measured on cellulose are in the low- to high-millimolar range [28, 31, 32]. […] Unfortunately, the inhibition of this enzyme on cellulose has not been studied. We also studied the cellobiose inhibition of GH7 CBHs acting on MUL. The initial rates of MUL hydrolysis measured in the presence and absence of added cellobiose were first analyzed according to Equation 1, and the IC50 values were found using Equation 2. […] The inhibition of MUL hydrolysis is attributable to the binding of cellobiose to the product sites (+1/+2) of TrCel7A [52]. […]
For the inhibition of enzyme acting on the low-Mw substrate, the initial rates of the hydrolysis of MUL in the presence and absence of added cellobiose were followed. […] Reactions were stopped by the addition of NH3 (final concentration 0.1 M), and the released 4-methylumbelliferone was quantified by fluorescence using excitation and emission wavelengths of 360 nm and 450 nm, respectively.

The target in another assay is T1, TrCel5A (Trichoderma reesei, UniProt P07982).
T1 construct: TrCel7B, TrCel5A, and TrCel12A were purified from the culture filtrate of Tr QM 9414; made in house; host or cells: Trichoderma reesei QM 9414 culture filtrate (native producer)
T1 sequence (P07982 22-418): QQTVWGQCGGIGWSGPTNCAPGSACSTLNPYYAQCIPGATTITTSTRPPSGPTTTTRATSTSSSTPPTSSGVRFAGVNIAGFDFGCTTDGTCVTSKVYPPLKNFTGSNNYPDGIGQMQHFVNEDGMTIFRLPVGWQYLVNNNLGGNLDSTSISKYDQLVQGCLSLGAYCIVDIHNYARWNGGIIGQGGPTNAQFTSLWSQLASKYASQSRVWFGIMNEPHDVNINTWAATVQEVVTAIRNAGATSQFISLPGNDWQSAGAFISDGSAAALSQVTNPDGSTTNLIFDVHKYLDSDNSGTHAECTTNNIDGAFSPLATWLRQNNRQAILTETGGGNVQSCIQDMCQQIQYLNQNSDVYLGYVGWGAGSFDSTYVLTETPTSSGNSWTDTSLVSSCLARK
Details: method as in doi:10.1016/j.tca.2005.01.025. Conditions: TrCel5A acting on cellohexaose; read-out: Ki value for cellobiose inhibition; cited from earlier work.

SMILES strings stand for the structures.

Chain of CtCel7A (A7WNU1 entry or part of it): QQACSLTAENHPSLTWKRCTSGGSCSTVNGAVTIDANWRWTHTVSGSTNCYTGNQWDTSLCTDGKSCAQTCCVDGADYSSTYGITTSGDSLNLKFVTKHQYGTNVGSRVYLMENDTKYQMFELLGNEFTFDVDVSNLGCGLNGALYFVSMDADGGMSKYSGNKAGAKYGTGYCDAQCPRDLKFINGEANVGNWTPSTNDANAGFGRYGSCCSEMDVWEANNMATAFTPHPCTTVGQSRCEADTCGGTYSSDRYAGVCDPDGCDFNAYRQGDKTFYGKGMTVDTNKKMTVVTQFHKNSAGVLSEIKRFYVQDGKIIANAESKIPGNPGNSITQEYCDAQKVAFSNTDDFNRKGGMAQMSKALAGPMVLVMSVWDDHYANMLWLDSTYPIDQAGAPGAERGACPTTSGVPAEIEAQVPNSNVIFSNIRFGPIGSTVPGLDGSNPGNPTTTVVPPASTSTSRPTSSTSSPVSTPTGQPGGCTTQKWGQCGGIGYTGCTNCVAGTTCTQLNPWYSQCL

Consider `O=C[C@H](O)[C@@H](O)[C@H](O[C@@H]1O[C@H](CO)[C@@H](O)[C@H](O)[C@H]1O)[C@H](O)CO` [cellobiose, Cellobiose], for which the Ki (in general, the equilibrium dissociation constant of an inhibitor or competing ligand from its target) on CtCel7A (35°C) was 110 µM; on CtCel7A (50°C), 346 µM; at TrCel5A it was 424 µM.
